Measurements taken from patent publication US5064953A, “Intermediates cephalosporin derivatives” (Mochida Pharmaceutical Co., Ltd., priority 1983, dated 1991).
≈ marks a conversion by molar mass, not a printed value.

Tests used:
Assay in all cases: Antibacterial activity in vitro, agar plate dilution method (MIC)
Format in all cases: cell-based
Escherichia coli 67 = conditions: 10^6 cells/ml, Mueller Hinton agar, 37° C., 20 hours
Method: (§1) Antibacterial activity in vitro was determined in accordance with the agar plate dilution method. A platinum loop each of test bacteria (10^6 cells/ml), cultured in Mueller Hinton broth, was inoculated on Mueller Hinton agar plates which contained test compounds at various concentrations. After cultivating at 37° C. for 20 hours, the minimum inhibitory concentration (MIC μg/ml) was determined.

[1] = tested on: Klebsiella pneumoniae IF03317; conditions: 10^6 cells/ml, Mueller Hinton agar, 37° C., 20 hours
Method: as §1

Proteus morganii IF03848 = conditions: Morganella morganii, 10^6 cells/ml, Mueller Hinton agar, 37° C., 20 hours
Method: as §1

[2] = tested on: Pseudomonas aeruginosa IF03445; conditions: 10^6 cells/ml, Mueller Hinton agar, 37° C., 20 hours
Method: as §1

[3] = tested on: Serratia marcescens IF03759; conditions: 10^6 cells/ml, Mueller Hinton agar, 37° C., 20 hours
Method: as §1

[4] = tested on: Staphylococcus aureus Smith; conditions: 10^6 cells/ml, Mueller Hinton agar, 37° C., 20 hours
Method: as §1

Compound	MIC (Escherichia coli 67)	MIC [1]	MIC (Proteus morganii IF03848)	MIC [2]	MIC [3]	MIC [4]
CO/N=C(\C(=O)N[C@@H]1C(=O)N2C(C(=O)O)=C(CSc3cc(O)nc4nc(C(=O)O)nn34)CS[C@H]12)c1csc(N)n1 [Compound 15]	0.39 µg/mL (≈ 0.642 µM)	< 0.05 µg/mL	0.78 µg/mL (≈ 1.28 µM)	12.5 µg/mL (≈ 20.6 µM)	0.1 µg/mL (≈ 0.165 µM)	12.5 µg/mL (≈ 20.6 µM)
CO/N=C(\C(=O)N[C@@H]1C(=O)N2C(C(=O)O)=C(CSc3nnc4cc(C)nc(O)n34)CS[C@H]12)c1csc(N)n1 [Compound 23, (6R,7R)-7-[2-(2-amino-4-thiazolyl)-2-(Z-methoxyimino)acetamido]-3 [(5-hydroxy-7-methyl-s-triazolo[4,3-c]pyrimidin-3-yl)thiomethyl]-8-oxo-5-thia-1-azabicyclo[4.2.0]oct-2-ene-2-carboxylic acid]	0.1 µg/mL (≈ 0.173 µM)	< 0.05 µg/mL	0.78 µg/mL (≈ 1.35 µM)	50 µg/mL (≈ 86.6 µM)	0.39 µg/mL (≈ 0.675 µM)	3.13 µg/mL (≈ 5.42 µM)
CO/N=C(\C(=O)N[C@@H]1C(=O)N2C(C(=O)O)=C(CSc3c(C(=O)O)cnc4ncnn34)CS[C@H]12)c1csc(N)n1 [Compound 3, (6R,7R)-7-[2-(2-amino-4-thiazolyl)-2-(Z-methoxyimino)acetamido]-3-[(6-carboxy-s-triazolo[1,5-a]pyrimidin-7-yl)-thiomethyl]-8-oxo-5-thia-1-azabicyclo [4.2.0]oct-2-ene-2-carboxylic acid]	0.39 µg/mL (≈ 0.659 µM)	< 0.05 µg/mL	1.57 µg/mL (≈ 2.65 µM)	> 100 µg/mL	0.78 µg/mL (≈ 1.32 µM)	12.5 µg/mL (≈ 21.1 µM)
CO/N=C(\C(=O)N[C@@H]1C(=O)N2C(C(=O)O)=C(CSc3nnc4nc(C(=O)O)cc(O)n34)CS[C@H]12)c1csc(N)n1 [Compound 21, (6R,7R)-7-[2-(2-amino-4-thiazolyl)-2-(Z-methoxyimino)acetamido]-3-[(7-carboxy-5-hydroxy-s-triazolo[4,3-a]pyrimidin-3-yl)thiomethyl]-8-oxo-5-thia-1-azabicyclo[4.2.0]oct-2-ene-2-carboxylic acid]	0.78 µg/mL (≈ 1.28 µM)	0.1 µg/mL (≈ 0.165 µM)	3.13 µg/mL (≈ 5.15 µM)	> 100 µg/mL	1.57 µg/mL (≈ 2.58 µM)	25 µg/mL (≈ 41.1 µM)
CO/N=C(\C(=O)N[C@@H]1C(=O)N2C(C(=O)O)=C(CSc3cc(C)nc4nc(CC(=O)O)nn34)CS[C@H]12)c1csc(N)n1 [Compound 4, (6R,7R)-7-[2-(2-amino-4-thiazolyl)-2-(Z-methoxyimino)acetamido]-3-[(2-carboxymethyl-5-methyl-s-triazolo[1,5-a]pyrimidin-7-yl)thiomethyl]-8-oxo-5-thia-1-azabicyclo[4.2.0]oct-2-ene-2-carboxylic acid]	0.2 µg/mL (≈ 0.323 µM)	< 0.05 µg/mL	0.78 µg/mL (≈ 1.26 µM)	25 µg/mL (≈ 40.3 µM)	0.1 µg/mL (≈ 0.161 µM)	3.13 µg/mL (≈ 5.05 µM)
CO/N=C(\C(=O)N[C@@H]1C(=O)N2C(C(=O)O)=C(CSc3cc(OC)nc4ncnn34)CS[C@H]12)c1csc(N)n1 [Compound 16, (6R,7R)-7-[2-(2-amino-4-thiazolyl)-2-(Z-methoxyimino)acetamido]-3-[(5-methoxy-s-triazolo[1,5-a]pyrimidin-7-yl)thiomethyl]-8-oxo-5-thia-1-azabicyclo[4.2.0]oct-2-ene-2-carboxylic acid]	0.1 µg/mL (≈ 0.173 µM)	< 0.05 µg/mL	3.13 µg/mL (≈ 5.42 µM)	100 µg/mL (≈ 173 µM)	0.39 µg/mL (≈ 0.675 µM)	1.57 µg/mL (≈ 2.72 µM)
CO/N=C(\C(=O)N[C@@H]1C(=O)N2C(C(=O)O)=C(CSc3cc(C(=O)O)nc4nnc(C)n34)CS[C@H]12)c1csc(N)n1 [Compound 20, (6R,7R)-7-[2-(2-amino-4-thiazolyl)-2-(Z-methoxyimino)acetamido]-3-[(7-carboxy-3-methyl-s-triazolo[4,3-a]pyrimidin-5-yl)thiomethyl]-8-oxo-5-thia-1-azabicyclo[4.2.0]oct-2-ene-2-carboxylic acid]	0.2 µg/mL (≈ 0.33 µM)	< 0.05 µg/mL	0.78 µg/mL (≈ 1.29 µM)	12.5 µg/mL (≈ 20.6 µM)	0.2 µg/mL (≈ 0.33 µM)	3.13 µg/mL (≈ 5.17 µM)
CO/N=C(\C(=O)N[C@@H]1C(=O)N2C(C(=O)O)=C(CSc3ccnc4nc(C(=O)O)nn34)CS[C@H]12)c1csc(N)n1 [Compound 14, (6R,7R)-7-[2-(2-amino-4-thiazolyl)-2-(Z-methoxyimino)acetamido]-3-[(2-carboxy-s-triazolo[1,5-a]pyrimidin-7-yl)thiomethyl]-8-oxo-5-thia-1-azabicyclo[4.2.0]oct-2-ene-2-carboxylic acid]	0.1 µg/mL (≈ 0.169 µM)	< 0.05 µg/mL	0.2 µg/mL (≈ 0.338 µM)	50 µg/mL (≈ 84.5 µM)	< 0.05 µg/mL	3.13 µg/mL (≈ 5.29 µM)
CO/N=C(\C(=O)N[C@@H]1C(=O)N2C(C(=O)O)=C(CSc3cc(C)nc4nc(N)nn34)CS[C@H]12)c1csc(N)n1 [Compound 17, (6R,7R)-7-[2-(2-amino-4-thiazolyl)-2-(Z-methoxyimino)acetamido]-3-[(2-amino-5-methyl-s-triazolo[1,5-a]pyrimidin-7-yl)thiomethyl]-8-oxo-5-thia-1-azabicyclo[4.2.0]oct-2-ene-2-carboxylic acid]	0.1 µg/mL (≈ 0.173 µM)	< 0.05 µg/mL	0.39 µg/mL (≈ 0.676 µM)	50 µg/mL (≈ 86.7 µM)	0.2 µg/mL (≈ 0.347 µM)	1.57 µg/mL (≈ 2.72 µM)
CC(=O)Oc1ccc(C(=O)O/N=C(\C(=O)N[C@@H]2C(=O)N3C(C(=O)O)=C(CSc4cc(C)nc5nc(C(=O)O)nn45)CS[C@H]23)c2csc(N)n2)cc1OC(C)=O [Compound 27, (6R,7R)-7-[2-(2-amino-4-thiazolyl)-2-[Z-(3,4-diacetoxybenzoyl)oxyimino]acetamido]-3-[(2-carboxy-5-methyl-s-triazolo[1,5-a]pyrimidin-7-yl)thiomethyl]-8-oxo-5-thia-1-azabicyclo[4.2.0]oct-2-ene-2-carboxylic acid]	< 0.05 µg/mL	< 0.05 µg/mL	0.2 µg/mL (≈ 0.246 µM)	0.39 µg/mL (≈ 0.48 µM)	< 0.05 µg/mL	1.57 µg/mL (≈ 1.93 µM)

More lines, now with the values ahead:

MIC (Escherichia coli 67)	MIC [1]	MIC (Proteus morganii IF03848)	MIC [2]	MIC [3]	MIC [4]	Compound
0.1 µg/mL (≈ 0.165 µM)	< 0.05 µg/mL	0.78 µg/mL (≈ 1.29 µM)	> 100 µg/mL	0.2 µg/mL (≈ 0.33 µM)	3.13 µg/mL (≈ 5.17 µM)	CO/N=C(\C(=O)N[C@@H]1C(=O)N2C(C(=O)O)=C(CSc3cc(CC(=O)O)nc4ncnn34)CS[C@H]12)c1csc(N)n1 [Compound 5, (6R,7R)-7-[2-(2-amino-4-thiazolyl)-2-(Z-methoxyimino)acetamido]-3-[(5-carboxymethyl-s-triazolo[1,5-a]pyrimidin-7-yl)thiomethyl]-8-oxo-5-thia-1-azabicyclo[4.2.0]oct-2-ene-2-carboxylic acid]
0.1 µg/mL (≈ 0.178 µM)	< 0.05 µg/mL	0.78 µg/mL (≈ 1.39 µM)	50 µg/mL (≈ 88.9 µM)	0.39 µg/mL (≈ 0.693 µM)	1.57 µg/mL (≈ 2.79 µM)	CO/N=C(\C(=O)N[C@@H]1C(=O)N2C(C(=O)O)=C(CSc3nc(N)cc4ncnn34)CS[C@H]12)c1csc(N)n1 [Compound 22, (6R,7R)-7-[2-(2-amino-4-thiazolyl)-2-(Z-methoxyimino)acetamido]-3-[(7-amino-s-triazolo[1,5-c]pyrimidin-5-yl)thiomethyl]-8 oxo-5-thia-1-azabicyclo[4.2.0]oct-2-ene-2-carboxylic acid]
0.1 µg/mL (≈ 0.144 µM)	< 0.05 µg/mL	0.39 µg/mL (≈ 0.561 µM)	50 µg/mL (≈ 71.9 µM)	0.1 µg/mL (≈ 0.144 µM)	0.39 µg/mL (≈ 0.561 µM)	Cc1cc(SCC2=C(C(=O)O)N3C(=O)[C@@H](NC(=O)/C(=N\OC(=O)c4ccccc4)c4csc(N)n4)[C@H]3SC2)n2nc(C(=O)O)nc2n1 [Compound 25, (6R,7R)-7-[2-(2-amino-4-thiazolyl)-2-(Z-benzoyloxyimino)acetamido]-3 [(2-carboxy-5-methyl-s-triazolo[1,5-a]pyrimidin-7-yl)thiomethyl]8-oxo-5-thia-1-azabicyclo[4.2.0]oct-2-ene 2-carboxylic acid]
< 0.05 µg/mL	< 0.05 µg/mL	0.2 µg/mL (≈ 0.329 µM)	6.25 µg/mL (≈ 10.3 µM)	< 0.05 µg/mL	6.25 µg/mL (≈ 10.3 µM)	CO/N=C(\C(=O)N[C@@H]1C(=O)N2C(C(=O)O)=C(CSc3nc4ncc(C(=O)O)c(O)n4n3)CS[C@H]12)c1csc(N)n1 [Compound 19, (6R,7R)-7-[2-(2-amino-4-thiazolyl)-2-(Z-methoxyimino)acetamido]-3-[(6-carboxy-7-hydroxy-s-triazolo[1,5-a]pyrimidin-2-yl)thiomethyl]-8-oxo-5-thia-1-azabicyclo[4.2.0]oct-2-ene-2-carboxylic acid]
0.05 µg/mL (≈ 0.0575 µM)	< 0.05 µg/mL	0.2 µg/mL (≈ 0.23 µM)	1.57 µg/mL (≈ 1.8 µM)	< 0.05 µg/mL	0.78 µg/mL (≈ 0.897 µM)	CC(=O)Oc1cc(C(=O)O/N=C(\C(=O)N[C@@H]2C(=O)N3C(C(=O)O)=C(CSc4cc(C)nc5nc(C(=O)O)nn45)CS[C@H]23)c2csc(N)n2)cc(OC(C)=O)c1OC(C)=O [Compound 13]
< 0.05 µg/mL	< 0.05 µg/mL	0.78 µg/mL (≈ 1.22 µM)	100 µg/mL (≈ 156 µM)	0.2 µg/mL (≈ 0.312 µM)	0.39 µg/mL (≈ 0.608 µM)	CO/N=C(\C(=O)N[C@@H]1C(=O)N2C(C(=O)O)=C(CSc3cc(C)nc4nc(S(=O)(=O)O)nn34)CS[C@H]12)c1csc(N)n1 [Compound 18, (6R,7R)-7-[2-(2-amino-4-thiazolyl)-2-(Z-methoxyimino)acetamido]-3-[(2 hydroxysulfonyl-5-methyl-s-triazolo[1,5-a]pyrimidin-7-yl)thiomethyl]-8-oxo-5-thia-1-azabicyclo[4.2.0]oct 2-ene-2-carboxylic acid]
< 0.05 µg/mL	< 0.05 µg/mL	0.39 µg/mL (≈ 0.656 µM)	50 µg/mL (≈ 84.1 µM)	0.2 µg/mL (≈ 0.336 µM)	0.78 µg/mL (≈ 1.31 µM)	CO/N=C(\C(=O)N[C@@H]1C(=O)N2C(C(=O)O)=C(CSc3nn4c(=O)cc(C)nc4s3)CS[C@H]12)c1csc(N)n1 [Compound 24, (6R,7R)-7-[2-(2-amino-4-thiazolyl)-2-(Z-methoxyimino)acetamido]-3-[(7-methyl-5oxo-5H-1,3,4-thiadiazolo[3,2-a]pyrimidin-2-yl)thiomethyl]-8-oxo-5-thia-1-azabicyclo[4.2.0]oct-2-ene-2-carboxylic acid]
